Read-outs that look alike come from different tables or passages of the source.
Biological target: human CB2R (Homo sapiens, UniProt P34972)
Experiment: CB2R mediated modulation of cAMP synthesis
Format: cell-based
Experimental: B. CB2R Mediated Modulation of cAMP Synthesis:
Compounds of the invention were evaluated for their CB2 agonist or inverse agonistic activity in accordance with the following experimental method.
CHO cells expressing human CB2R (Euroscreen) were plated at a density of 5000 cells per well in 384 well plates and incubated overnight at 37° C. After removing the media, the cells were treated with test compounds diluted in stimulation buffer containing 1 mM IBMX, 0.25% BSA and 10 uM Forskolin. The assay was incubated for 30 minutes at 37° C. Cells were lysed and the cAMP concentration was measured using DiscoverX-XS cAMP kit, following the manufacturer's protocol. In this setting, agonists will decrease forskolin induced production of cAMP while inverse agonists will further increase forskolin induced production of cAMP. EC50 of agonists were calculated as follows. The maximal amount of cAMP produced by forskolin compared to the level of cAMP inhibited by 1 uM CP55940 is defined as 100%. […] Data was analyzed using a four-parameter logistic model. (Model 205 of XLfit 4.0).

Chain of human CB2R (P34972 whole entry): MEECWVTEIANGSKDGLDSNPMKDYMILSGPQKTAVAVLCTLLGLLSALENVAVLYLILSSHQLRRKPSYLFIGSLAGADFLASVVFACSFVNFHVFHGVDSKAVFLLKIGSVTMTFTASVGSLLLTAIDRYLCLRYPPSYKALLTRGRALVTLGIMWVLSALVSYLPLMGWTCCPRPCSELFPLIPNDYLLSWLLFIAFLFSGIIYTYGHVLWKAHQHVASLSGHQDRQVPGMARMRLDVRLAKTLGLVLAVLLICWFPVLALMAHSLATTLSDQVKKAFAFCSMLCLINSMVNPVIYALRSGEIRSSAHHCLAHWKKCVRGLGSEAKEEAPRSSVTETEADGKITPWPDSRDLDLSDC

## CC(C)(C)c1cc(NC(=O)[C@@H]2C[C@@H](O)CN2c2ncc(C(F)(F)F)cc2Cl)on1 [(2S,4R)-1-(3-Chloro-5-trifluoromethyl-pyridin-2-yl)-4-hydroxy-pyrrolidine-2-carboxylic acid (3-tert-butyl-isoxazol-5-yl)-amide]
  EC50: 3.25 nM

## CC(C)(C)c1cc(NC(=O)[C@@H]2C[C@@H](O)CN2c2ncc(C(F)(F)F)cc2Cl)no1 [(2S,4R)-1-(3-Chloro-5-trifluoromethyl-pyridin-2-yl)-4-hydroxy-pyrrolidine-2-carboxylic acid (5-tert-butyl-isoxazol-3-yl)-amide]
  EC50: 5.04 nM

## O=C(NCC1CCCCC1)[C@@H]1C[C@@H](O)CN1C(=O)C1CCC(F)(F)CC1 [(2S,4R)-1-(4,4-Difluoro-cyclohexanecarbonyl)-4-hydroxy-pyrrolidine-2-carboxylic acid cyclohexylmethyl-amide]
CHO cells expressing human CB2R, inhibition of forskolin-stimulated cAMP synthesis, mean, read-out: CB2 CAMP @ EC50 nM (mean)
  EC50: 432 nM

## CC(C)(C)c1cc(NC(=O)[C@@H]2C[C@@H](O)CN2c2ccc(Cl)cc2)no1 [(2S,4R)-1-(4-Chloro-phenyl)-4-hydroxy-pyrrolidine-2-carboxylic acid (5-tert-butyl-isoxazol-3-yl)-amide]
  EC50: 14.4 nM

## CC(C)(CO)c1cc(NC(=O)[C@@H]2C[C@@H](O)CN2c2ccc(Cl)cc2)on1 [(2S,4R)-1-(4-Chloro-phenyl)-4-hydroxy-pyrrolidine-2-carboxylic acid [3-(2-hydroxy-1,1-dimethyl-ethyl)-isoxazol-5-yl]-amide]
  EC50: 196 nM

## COCC(C)(C)c1cc(NC(=O)[C@@H]2C[C@@H](O)CN2c2ccc(Cl)cc2)on1 [(2S,4R)-1-(4-Chloro-phenyl)-4-hydroxy-pyrrolidine-2-carboxylic acid [3-(2-methoxy-1,1-dimethyl-ethyl)-isoxazol-5-yl]-amide]
  EC50: 87 nM

## COCC(C)(C)c1cc(NC(=O)[C@@H]2C[C@@H](O)CN2c2ccc(Cl)cc2)no1 [(2S,4R)-1-(4-Chloro-phenyl)-4-hydroxy-pyrrolidine-2-carboxylic acid [5-(2-methoxy-1,1-dimethyl-ethyl)-isoxazol-3-yl]-amide]
  EC50: 80.9 nM

## CC(C)(C)c1cc(NC(=O)[C@@H]2C[C@@H](O)CN2C2CCCCC2)no1 [(2S,4R)-1-Cyclohexyl-4-hydroxy-pyrrolidine-2-carboxylic acid (5-tert-butyl-isoxazol-3-yl)-amide]
  EC50: 4.69 nM

## CC(C)(C)c1cc(NC(=O)[C@@H]2C[C@@H](O)CN2C2CCCC2)on1 [(2S,4R)-1-Cyclopentyl-4-hydroxy-pyrrolidine-2-carboxylic acid (3-tert-butyl-isoxazol-5-yl)-amide]
  EC50: 61.9 nM

## CC(C)(C)c1cc(NC(=O)[C@@H]2C[C@@H](O)CN2C2CCCC2)no1 [(2S,4R)-1-Cyclopentyl-4-hydroxy-pyrrolidine-2-carboxylic acid (5-tert-butyl-isoxazol-3-yl)-amide]
  EC50: 23.2 nM

## O=C(Nc1nc(-c2ccccc2)ns1)[C@@H]1C[C@@H](O)CN1c1ccc(C(F)(F)F)cn1 [(2S,4R)-4-Hydroxy-1-(5-trifluoromethyl-pyridin-2-yl)-pyrrolidine-2-carboxylic acid (3-phenyl-1,2,4-thiadiazol-5-yl)-amide]
  EC50: 357 nM

## CC(C)(C)c1cc(NC(=O)[C@@H]2C[C@@H](O)CN2c2ccc(C(F)(F)F)cn2)on1 [(2S,4R)-4-Hydroxy-1-(5-trifluoromethyl-pyridin-2-yl)-pyrrolidine-2-carboxylic acid (3-tert-butyl-isoxazol-5-yl)-amide]
  EC50: 0.433 nM

## CC(C)(C)c1cc(NC(=O)[C@@H]2C[C@@H](O)CN2c2ccc(C(F)(F)F)cn2)no1 [(2S,4R)-4-Hydroxy-1-(5-trifluoromethyl-pyridin-2-yl)-pyrrolidine-2-carboxylic acid (5-tert-butyl-isoxazol-3-yl)-amide]
  EC50: 161 nM

## CC(C)(C)c1cc(NC(=O)[C@@H]2C[C@@H](O)CN2C2CCOCC2)on1 [(2S,4R)-4-Hydroxy-1-(tetrahydro-pyran-4-yl)-pyrrolidine-2-carboxylic acid (3-tert-butyl-isoxazol-5-yl)-amide]
  EC50: 328 nM

From US8629157B2, “Pyrrolidine compounds which modulate the CB2 receptor” (Boehringer Ingelheim International GmbH, priority 2009, dated 2014)
